How the values were obtained:
Format in all cases: biochemical
Details in all cases: ADP-Glo SIK kinase assay
[1] = target: T1, SIK2 (Homo sapiens, UniProt Q9H0K1); assay: ADP-Glo kinase assay, SIK2
T1 construct: purchased ThermoFisher Scientific PV4792
Procedure: (§1) The ADP-Glo™ kinase assay is a luminescent technology assay which measures the ADP formed from a kinase reaction. […] In a second step the kinase reactions are terminated and all the remaining ATP is depleted. In a final step the ADP is converted into ATP and this newly synthesized ATP is measured by using a luciferase/luciferin reaction. The generated light is measured using an Envision plate reader, wherein the luminescent signal obtained positively correlates with the kinase activity.
(§2) 1% DMSO and 10 μM staurosporine final concentrations are used as negative and positive controls.
(§3) 2 μL enzyme-substrate mixture is added to the assay plates.
(§4) The reaction is started by adding 2 μL diluted ATP on the assay plates. Plates are centrifuged for a few seconds at 1000 rpm and gently shaken for 2 min followed by an incubation at RT for 120 min.
(§5) The reactions are stopped and the unconsumed ATP is depleted by adding 5 μL ADP-Glo Reagent (Promega, Cat #V912B) to the reaction. The plates are centrifuged for a few seconds at 1000 rpm and incubated at RT for 40 min (ATP depletion).
(§6) The ADP is converted to ATP and luciferase and luciferin is introduced to detect ATP by adding 10 μL Kinase Detection Reagent (Promega, Cat #V913B+V914B) to the reaction. The plates are centrifuged for a few seconds at 1000 rpm and incubated at RT for 30 min (ADP detection).
(§7) Luminescence is measured on an Envision plate reader (PerkinElmer Inc.).

[2] = target: T2, SIK3 (Homo sapiens, UniProt Q9Y2K2); assay: ADP-Glo kinase assay, SIK3
T2 construct: purchased SignalChem S12-11G-100
Procedure: as §1, §2, §3, §4, §5, §6, §7

[3] = target: T3, SIK1 (Homo sapiens, UniProt P57059); assay: ADP-Glo kinase assay, SIK1
T3 construct: purchased Carna Biosciences 02-131
Procedure: as §1, §2, §3, §4, §5, §6, §7

T3 sequence (P57059 whole entry): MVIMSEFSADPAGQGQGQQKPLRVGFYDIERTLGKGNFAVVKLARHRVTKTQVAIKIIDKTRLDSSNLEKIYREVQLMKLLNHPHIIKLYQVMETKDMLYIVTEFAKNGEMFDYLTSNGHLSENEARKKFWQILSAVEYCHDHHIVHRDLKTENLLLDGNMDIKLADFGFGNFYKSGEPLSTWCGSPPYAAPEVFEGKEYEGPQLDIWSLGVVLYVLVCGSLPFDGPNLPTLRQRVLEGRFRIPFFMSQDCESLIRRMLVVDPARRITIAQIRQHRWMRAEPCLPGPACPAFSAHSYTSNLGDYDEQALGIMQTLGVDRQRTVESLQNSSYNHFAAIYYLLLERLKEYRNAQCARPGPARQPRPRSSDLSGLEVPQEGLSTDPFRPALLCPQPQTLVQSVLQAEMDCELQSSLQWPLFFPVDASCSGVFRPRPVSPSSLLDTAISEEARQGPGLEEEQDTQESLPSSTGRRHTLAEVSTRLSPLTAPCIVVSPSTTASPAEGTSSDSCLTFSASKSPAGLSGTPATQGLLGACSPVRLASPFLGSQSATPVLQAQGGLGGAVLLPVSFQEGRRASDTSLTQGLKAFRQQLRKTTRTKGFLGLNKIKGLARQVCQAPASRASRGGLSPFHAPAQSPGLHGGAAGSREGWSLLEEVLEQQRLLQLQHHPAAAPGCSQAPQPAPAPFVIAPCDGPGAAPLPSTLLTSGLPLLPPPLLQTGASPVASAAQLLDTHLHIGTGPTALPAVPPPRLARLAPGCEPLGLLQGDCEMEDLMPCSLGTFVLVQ
T2 sequence (Q9Y2K2 whole entry): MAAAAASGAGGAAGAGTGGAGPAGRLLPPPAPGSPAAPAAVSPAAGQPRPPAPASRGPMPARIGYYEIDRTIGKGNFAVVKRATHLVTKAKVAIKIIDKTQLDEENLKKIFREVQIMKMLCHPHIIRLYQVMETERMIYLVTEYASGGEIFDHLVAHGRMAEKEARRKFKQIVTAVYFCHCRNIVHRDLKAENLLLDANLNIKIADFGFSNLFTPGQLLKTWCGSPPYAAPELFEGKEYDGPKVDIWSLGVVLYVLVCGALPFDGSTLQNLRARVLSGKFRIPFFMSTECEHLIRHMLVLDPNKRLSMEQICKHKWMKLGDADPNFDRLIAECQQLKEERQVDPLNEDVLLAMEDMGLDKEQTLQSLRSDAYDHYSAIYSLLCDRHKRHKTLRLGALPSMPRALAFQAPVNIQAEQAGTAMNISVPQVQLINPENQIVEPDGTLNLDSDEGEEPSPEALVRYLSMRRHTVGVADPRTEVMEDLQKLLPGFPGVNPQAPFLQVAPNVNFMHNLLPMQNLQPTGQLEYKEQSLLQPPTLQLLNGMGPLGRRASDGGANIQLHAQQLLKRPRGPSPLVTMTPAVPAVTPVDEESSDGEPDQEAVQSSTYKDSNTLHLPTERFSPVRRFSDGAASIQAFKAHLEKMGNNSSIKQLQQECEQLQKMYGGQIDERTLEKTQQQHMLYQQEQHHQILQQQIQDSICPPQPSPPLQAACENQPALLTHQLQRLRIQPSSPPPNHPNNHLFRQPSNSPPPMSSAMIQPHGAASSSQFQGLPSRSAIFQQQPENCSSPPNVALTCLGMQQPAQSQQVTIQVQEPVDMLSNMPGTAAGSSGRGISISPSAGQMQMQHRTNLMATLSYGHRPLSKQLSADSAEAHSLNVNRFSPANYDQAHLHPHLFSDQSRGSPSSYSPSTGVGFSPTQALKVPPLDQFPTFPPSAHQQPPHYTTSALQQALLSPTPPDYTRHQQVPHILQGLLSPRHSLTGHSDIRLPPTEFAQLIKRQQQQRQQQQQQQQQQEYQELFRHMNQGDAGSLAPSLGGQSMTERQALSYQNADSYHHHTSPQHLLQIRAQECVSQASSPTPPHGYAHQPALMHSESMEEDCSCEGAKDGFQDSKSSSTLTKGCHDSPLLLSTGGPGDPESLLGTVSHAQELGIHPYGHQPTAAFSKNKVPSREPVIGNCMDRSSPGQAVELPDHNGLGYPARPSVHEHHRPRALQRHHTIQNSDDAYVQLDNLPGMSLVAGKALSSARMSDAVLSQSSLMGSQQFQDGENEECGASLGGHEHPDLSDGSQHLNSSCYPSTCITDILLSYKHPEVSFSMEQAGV
T1 sequence (Q9H0K1 whole entry): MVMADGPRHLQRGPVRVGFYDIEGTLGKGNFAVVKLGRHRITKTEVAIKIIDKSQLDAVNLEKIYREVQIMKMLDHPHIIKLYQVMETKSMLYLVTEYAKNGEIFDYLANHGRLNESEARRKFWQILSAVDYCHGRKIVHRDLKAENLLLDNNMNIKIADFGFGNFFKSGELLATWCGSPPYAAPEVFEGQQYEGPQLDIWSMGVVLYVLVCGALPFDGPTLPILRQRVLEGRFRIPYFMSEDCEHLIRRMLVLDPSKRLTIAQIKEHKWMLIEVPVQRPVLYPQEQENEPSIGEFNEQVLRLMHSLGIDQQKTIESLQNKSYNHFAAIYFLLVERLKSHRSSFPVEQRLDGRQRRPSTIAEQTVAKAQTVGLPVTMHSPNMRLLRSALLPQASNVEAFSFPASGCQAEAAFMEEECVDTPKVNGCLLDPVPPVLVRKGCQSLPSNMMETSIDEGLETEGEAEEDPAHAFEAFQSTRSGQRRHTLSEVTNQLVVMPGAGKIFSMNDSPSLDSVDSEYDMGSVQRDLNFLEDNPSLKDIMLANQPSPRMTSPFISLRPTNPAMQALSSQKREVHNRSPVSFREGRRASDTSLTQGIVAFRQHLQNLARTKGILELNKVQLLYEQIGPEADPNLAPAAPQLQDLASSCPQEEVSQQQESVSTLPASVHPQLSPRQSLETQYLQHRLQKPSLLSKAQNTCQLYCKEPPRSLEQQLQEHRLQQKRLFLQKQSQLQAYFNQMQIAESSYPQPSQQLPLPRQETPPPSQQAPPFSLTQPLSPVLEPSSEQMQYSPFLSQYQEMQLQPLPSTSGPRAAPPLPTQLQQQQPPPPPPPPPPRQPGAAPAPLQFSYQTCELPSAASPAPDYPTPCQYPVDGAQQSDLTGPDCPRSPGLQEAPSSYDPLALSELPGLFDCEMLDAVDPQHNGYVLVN

Structure (SMILES)	IC50 [1]	IC50 [2]	IC50 [3]
COc1cc(-c2cnc3cc(OCCC4CCCCN4C)ccn23)cc(OC(F)F)c1C(=O)NC1CC1 (stereo not drawn) [compound 24, N-cyclopropyl-2-(difluoromethoxy)-6-methoxy-4-[7-[2-(1-methyl-2-piperidyl)ethoxy]imidazo [1,2-a]pyridin-3-yl]benzamide]	0.01 to 10 nM	0.01 to 10 nM	0.01 to 10 nM
COc1cc(-c2cnc3cc(OCC(C)(C)C)ccn23)cc(OC(F)F)c1C(=O)NC1CC1 [compound 66, N-cyclopropyl-2-(difluoromethoxy)-4-[7-(2,2-dimethylpropoxy)imidazo [1,2-a]pyridin-3-yl]-6-methoxy-benzamide]	0.01 to 10 nM	0.01 to 10 nM	0.01 to 10 nM
COc1cc(-c2cnc3cc(OCC4COCCN4)ccn23)cc(OC(F)F)c1C(=O)NC1CC1 (stereo not drawn) [Cpd 113, N-cyclopropyl-2-(difluoromethoxy)-6-methoxy-4-[7-(morpholin-3-ylmethoxy)imidazo[1,2-a]pyridin-3-yl]benzamide]	0.01 to 10 nM	0.01 to 10 nM	10 to 100 nM
COc1cc(-c2cnc3cc(OCCN4CCOCC4)ccn23)cc2ccn(CC(F)(F)F)c(=O)c12 [Cpd 221, 8-methoxy-6-[7-(2-morpholinoethoxy)imidazo [1,2-a]pyridin-3-yl]-2-(2,2,2-trifluoroethyl) isoquinolin-1-one]	10 to 100 nM	10 to 100 nM	> 500 nM
COc1cc(-c2cnc3cc(OCC4CC(F)(F)C4)ccn23)cc(OC(F)F)c1C(=O)NC1CC1 [compound 52, N-cyclopropyl-4-[7-[(3,3-difluorocyclobutyl)methoxy]imidazo[1,2-a]pyridin-3-yl]-2-(difluoromethoxy)-6-methoxy-benzamide]	0.01 to 10 nM	0.01 to 10 nM	0.01 to 10 nM
COc1cc(-c2cnc3cc(OCCCN4CCc5c(ncn5C)C4)ccn23)cc(OC(F)F)c1C(=O)NC1CC1 [compound 309, N-cyclopropyl-2-(difluoromethoxy)-6-methoxy-4-[7-[3-(1-methyl-6,7-dihydro-4H-imidazo[4,5-c]pyridin-5-yl)propoxy]imidazo[1,2-a]pyridin-3-yl]benzamide]	0.01 to 10 nM	0.01 to 10 nM	10 to 100 nM
COc1cc(-c2cnc3cc(OCC(=O)N(C)C)ccn23)cc(OC(F)F)c1C(=O)NC1CC1 [compound 100, N-cyclopropyl-2-(difluoromethoxy)-4-[7-[2-(dimethylamino)-2-oxo-ethoxy]imidazo[1,2-a]pyridin-3-yl]-6-methoxy-benzamide]	10 to 100 nM	10 to 100 nM	100 to 500 nM
COc1cc(-c2cnc3cc(OCCCN4CCCCC4)ccn23)cc(OC(F)F)c1C(=O)N[C@@H]1CC[C@H]1O (racemic) [compound 359, 2-(difluoromethoxy)-N-[(1R,2R)-2-hydroxycyclobutyl]-6-methoxy-4-[7-[3-(1-piperidyl)propoxy]imidazo[1,2-a]pyridin-3-yl]benzamide/2-(difluoromethoxy)-N-[(1S,2S)-2-hydroxycyclobutyl]-6-methoxy-4-[7-[3-(1-piperidyl)propoxy]imidazo[1,2-a]pyridin-3-yl]benzamide mixture]	0.01 to 10 nM	10 to 100 nM	100 to 500 nM
COc1cc(-c2cnc3cc(OCC4(C)CNC4)ccn23)cc(OC(F)F)c1C(=O)NC1CC1 [compound 208, N-cyclopropyl-2-(difluoromethoxy)-6-methoxy-4-[7-[(3-methylazetidin-3-yl)methoxy]imidazo[1,2-a]pyridin-3-yl]benzamide]	0.01 to 10 nM	0.01 to 10 nM	10 to 100 nM
CCOC(=O)CN1CCCCC1COc1ccn2c(-c3cc(OC)c(C(=O)NC4CC4)c(OC(F)F)c3)cnc2c1 (stereo not drawn) [Cpd 397, ethyl 2-[2-[[3-[4-(cyclopropylcarbamoyl)-3-(difluoromethoxy)-5-methoxy-phenyl]imidazo[1,2-a]pyridin-7-yl]oxymethyl]-1-piperidyl]acetate]	10 to 100 nM	0.01 to 10 nM	10 to 100 nM
COc1cc(-c2cnc3cc(OC4CCC(F)(F)C4)ccn23)cc(OC(F)F)c1C(=O)NC1CC1 (stereo not drawn) [compound 62, N-cyclopropyl-4-[7-(3,3-difluorocyclopentoxy)imidazo[1,2-a]pyridin-3-yl]-2-(difluoromethoxy)-6-methoxy-benzamide]	10 to 100 nM	0.01 to 10 nM	10 to 100 nM
COc1cc(-c2cnc3cc(OCC4CCN(C)CC4)ccn23)cc(OC(F)F)c1C(=O)NC1CC1 [compound 25, N-cyclopropyl-2-(difluoromethoxy)-6-methoxy-4-[7-[(1-methyl-4-piperidyl)methoxy]imidazo[1,2-a]pyridin-3-yl]benzamide]	0.01 to 10 nM	0.01 to 10 nM	0.01 to 10 nM
COc1cc(-c2cnc3cc(OCc4nnc(C5CC5)o4)ccn23)cc(OC(F)F)c1C(=O)NC1CC1 [compound 205, N-cyclopropyl-4-[7-[(5-cyclopropyl-1,3,4-oxadiazol-2-yl)methoxy]imidazo[1,2-a]pyridin-3-yl]-2-(difluoromethoxy)-6-methoxy-benzamide]	0.01 to 10 nM	0.01 to 10 nM	0.01 to 10 nM
COc1cc(-c2cnc3cc(OCc4ncco4)ccn23)cc(OC(F)F)c1C(=O)NC1CC1 [compound 32, N-cyclopropyl-2-(difluoromethoxy)-6-methoxy-4-[7-(oxazol-2-ylmethoxy)imidazo[1,2-a]pyridin-3-yl]benzamide]	0.01 to 10 nM	0.01 to 10 nM	10 to 100 nM
COc1cc(-c2cnc3cc(OCC4CCCN4C(C)C)ccn23)cc(OC(F)F)c1C(=O)NC1CC1 (stereo not drawn) [compound 295, N-cyclopropyl-2-(difluoromethoxy)-4-[7-[(1-isopropylpyrrolidin-2-yl)methoxy]imidazo[1,2-a]pyridin-3-yl]-6-methoxy-benzamide]	0.01 to 10 nM	0.01 to 10 nM	100 to 500 nM
COc1cc(-c2cnc3cc(OCCCN4CC5(CCS5(=O)=O)C4)ccn23)cc(OC(F)F)c1C(=O)NC1CC1 [compound 332, N-cyclopropyl-2-(difluoromethoxy)-4-[7-[3-(1,1-dioxo-1λ^6-thia-6-azaspiro[3.3]heptan-6-yl)propoxy]imidazo[1,2-a]pyridin-3-yl]-6-methoxy-benzamide]	0.01 to 10 nM	0.01 to 10 nM	10 to 100 nM
COc1cc(-c2cnc3cc(OC[C@H]4CCCN(C5COC5)C4)ccn23)cc(OC(F)F)c1C(=O)NC1CC1 [compound 318, N-cyclopropyl-2-(difluoromethoxy)-6-methoxy-4-[7-[[(3S)-1-(oxetan-3-yl)-3-piperidyl]methoxy]imidazo[1,2-a]pyridin-3-yl]benzamide]	0.01 to 10 nM	0.01 to 10 nM	0.01 to 10 nM
COc1cc(-c2cnc3cc(OCCN4CCOCC4)ccn23)cc2cc[nH]c(=O)c12 [compound 210, 8-methoxy-6-[7-(2-morpholinoethoxy)imidazo [1,2-a]pyridin-3-yl]-2H-isoquinolin-1-one]	0.01 to 10 nM	10 to 100 nM	10 to 100 nM
COc1cc(-c2cnc3cc(OCC4CN(CC(C)(C)O)C4)ccn23)cc(OC(F)F)c1C(=O)NC1CC1 [Cpd 342, N-cyclopropyl-2-(difluoromethoxy)-4-[7-[[1-(2-hydroxy-2-methyl-propyl)azetidin-3-yl]methoxy]imidazo[1,2-a]pyridin-3-yl]-6-methoxy-benzamide]	0.01 to 10 nM	0.01 to 10 nM	10 to 100 nM
COc1cc(-c2cnc3cc(OCc4nccn4C(C)C)ccn23)cc(OC(F)F)c1C(=O)NC1CC1 [compound 175, N-cyclopropyl-2-(difluoromethoxy)-4-[7-[(1-isopropylimidazol-2-yl)methoxy]imidazo[1,2-a]pyridin-3-yl]-6-methoxy-benzamide]	0.01 to 10 nM	0.01 to 10 nM	100 to 500 nM
COc1cc(-c2cnc3cc(OCC4CCCCN4CC(F)F)ccn23)cc(OC(F)F)c1C(=O)NC1CC1 (stereo not drawn) [compound 149, N-cyclopropyl-4-[7-[[1-(2,2-difluoroethyl)-2-piperidyl]methoxy]imidazo [1,2-a]pyridin-3-yl]-2-(difluoromethoxy)-6-methoxy-benzamide]	10 to 100 nM	0.01 to 10 nM	10 to 100 nM
COc1cc(-c2cnc3cc(OCC4(N)CCOC4)ccn23)cc(OC(F)F)c1C(=O)NC1CC1 (stereo not drawn) [compound 176, 4-[7-[(3-aminotetrahydrofuran-3-yl)methoxy]imidazo[1,2-a]pyridin-3-yl]-N-cyclopropyl-2-(difluoromethoxy)-6-methoxy-benzamide]	0.01 to 10 nM	0.01 to 10 nM	10 to 100 nM
COc1cc(-c2cnc3cc(OCCN4CCCC4)ccn23)cc(OC(F)F)c1C(=O)NC1CC1 [compound 20, N-cyclopropyl-2-(difluoromethoxy)-6-methoxy-4-[7-(2-pyrrolidin-1-ylethoxy)imidazo[1,2-a]pyridin-3-yl]benzamide]	0.01 to 10 nM	0.01 to 10 nM	10 to 100 nM

Reference: patent US12264156B2, “Compounds and pharmaceutical compositions thereof for the treatment of diseases” (GALAPAGOS NV, priority 2018, dated 2025)
